Consider 72 compounds from PubChem BioAssay AID179 (DTP/NCI, 2004).

Usually EC50 stands for the concentration giving half of the maximal effect. The term IC50 denotes the point on the concentration scale where inhibition reaches its midpoint. The low end stands for greater potency in that assay, the high end for weaker potency in that assay.

The test system of this assay is CEM cells HIV-1 protection, formazan growth assay. The assay can be described thus: NCI AIDS Antiviral Assay. To be noted: for IC50: measured here: growth of uninfected CEM cells. The method, boiled down: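 Human CEM cells, uninfected and HIV-1-infected, exposed to five drug concentrations; growth measured by soluble formazan assay and scored as percent protection from infection, with protecting compounds retested.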

Active and inactive are the calls of the source.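 The calls were made as follows: active = compounds giving half or more protection of infected cells from virus-caused growth loss, again on retest; inactive = the rest.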

Consider `CC(=O)c1cccc(NC(=O)C(=O)C(C2OC(=O)c3ccccc32)[N+](=O)[O-])c1` (stereo not drawn), for which the EC50 was above 468 µM and the IC50 is above 468 µM.

`CCCC1c2c(cc(=O)[nH]c2O)C(=O)N1Cc1ccccc1` (stereo not drawn): the concentration giving a half-maximal response (EC50) is above 63.1 µM and the IC50 is above 63.1 µM. For `O=C(Nc1ccccc1)N1CC(CN2CCN(c3ccccc3)CC2)OC1=O` (stereo not drawn), the EC50 is above 200 µM and the concentration for half-maximal inhibition (IC50) is above 200 µM.

With `COc1ccc(C(=C2C(=O)OC(=O)C2=C(C)C)c2ccc(OC)cc2)cc1`, the EC50 was above 200 µM and the concentration for half-maximal inhibition (IC50) was 95.5 µM.

`NCCCNCCCCNC(=O)C(O)NC(=O)CCCCCCN=C(N)N` (stereo not drawn): the EC50 is 288 µM and the 50% inhibitory concentration (IC50) is 501 µM. For `COc1cc2c(cc1OCCCCN1C(=O)c3cccc4cccc(c34)C1=O)N=C[C@@H]1CCCN1C2=O`, in that order: above 200 µM and 3.47 µM. Consider `CN(C)CN1C(=O)S/C(=C2\C(=O)N(CN(C)C)c3ccccc32)C1=O`, for which the EC50 was above 200 µM and the half-inhibitory concentration (IC50) was 38 µM. The like results for `Cc1nnc(-n2c(O)cc(=O)n(-c3ccccc3)c2=S)nc1/C=C/c1ccc(N(C)C)cc1` were, in that order, above 100 µM and 5.62 µM. Regarding `Cc1cc(-c2ccc(N=Nc3c(S(=O)(=O)O)cc4cc(S(=O)(=O)O)cc(N)c4c3O)c(C)c2)ccc1N=Nc1ccc2c(S(=O)(=O)O)ccc(N)c2c1O`, the result was inactive. Regarding `O=C1NC(=O)C(CC2CCCCCCCCCCC2=O)C(=O)N1` (stereo not drawn), the EC50 was above 112 µM and the concentration for half-maximal inhibition (IC50) is above 112 µM.

Turning to `Cc1occc1C(=S)Nc1ccc(Cl)c(C(=O)OC(C)(C)C)c1`, the EC50 is 0.0339 µM and the IC50 came to 9.33 µM.

Take `COc1cc(CSc2ccc(O)cc2)cc(OC)c1OC`: the EC50 is above 200 µM and the IC50 came out at 33.1 µM.

As for `COCN1COCN(COC)C1=O`, the EC50 is above 646 µM and the IC50 was above 646 µM. For the compound `OC1C(O)C(O)C2(CO2)C(O)C1O` (stereo not drawn), the EC50 is above 200 µM and the IC50 was above 200 µM. For `N#CC(C#N)=Cn1c(=S)[nH]c2ccccc21`, the EC50 is above 200 µM and the IC50 is above 200 µM. Take `CC(=C/c1ccccc1)/C=C1/NC(=S)N(CN2CCCCCC2)C1=O`: the EC50 is above 200 µM and the IC50 was determined as 110 µM.

For the compound `O=S(=O)(O)c1cc2onnc2c2ccccc12`, the EC50 was above 1000 µM and the half-maximal inhibitory concentration (IC50) was found to be 525 µM. In the case of `O=C1NC2C(O)CCCCC2C12CCCCC2` (stereo not drawn), the result was inactive. Turning to `O=C(c1ccccc1)c1cc2c([nH]c1=O)CCCCCC2`, the EC50 is above 200 µM and the IC50 is above 200 µM. As to `Cc1ccc(-c2nc3n(c2/C=N\N=C(N)N)CCS3)cc1`, the EC50 is above 200 µM and the IC50 turned out to be 29.5 µM. On to `CCCCCCC(=O)C/C(CCC(=O)N(Cc1ccccc1)Cc1ccccc1)=N\NC(N)=O`, for which the EC50 is above 38 µM and the IC50 was above 38 µM. `O=C1CC2C(=O)C1C(C(=O)O)C2C(=O)O` (stereo not drawn): the EC50 was above 1170 µM and the half-maximal inhibitory concentration (IC50) is above 1170 µM. Consider `O=CC(O)C(O)C(O)C(O)COC(=O)NCCCCC(=O)C(F)(F)C(F)(F)C(F)(F)C(F)(F)C(F)(F)C(F)(F)C(F)(F)F` (stereo not drawn), for which the EC50 is above 200 µM and the IC50 is 24 µM. For `Cc1c(/C=N/NC(=S)Nc2ccc([N+](=O)[O-])cc2)c(=O)n(-c2ccccc2)n1C`, in that order: above 200 µM and 166 µM. As to `O=C(/C=C/c1ccc2c(c1)OCO2)c1cccc2ccccc12`, the EC50 is above 6.61 µM and the IC50 is above 6.61 µM. On to `Cn1c(=O)nc2n(-c3cc(C(F)(F)F)cc(C(F)(F)F)c3)c3ccccc3nc-2c1=O`, for which the outcome was inactive. For the compound `CCOC(=O)c1c(C)c(=O)cnc2c(C#N)cnn12`, the EC50 was above 115 µM and the IC50 is above 115 µM. As to `CCC1COc2nc(=O)c(C=NCCCN(C)C)c(N)n21` (stereo not drawn), the EC50 is above 302 µM and the concentration for half-maximal inhibition (IC50) is above 302 µM. Turning to `COC(=O)[C@]1(C)CC[C@]2(C)CC[C@]3(C)C4CC[C@@]56CO[C@@](O)(CCC5[C@]4(C)CCC3(C)[C@@H]2C1)[C@@H]6C` (stereo partly drawn), the EC50 is above 28.2 µM and the half-maximal inhibitory concentration (IC50) was 26.9 µM. Regarding `COC(=O)CSc1nc2[nH]c(SC)c(C(N)=O)c2c(=O)n1-c1ccccc1`, the EC50 is above 200 µM and the IC50 is above 200 µM. Regarding `CC(=O)C1=C(O)C2(O)C(=O)c3c(c(C)c4ccc(C)c(O)c4c3O)CC2C(N)C1=O` (stereo not drawn), the EC50 was above 53.7 µM and the IC50 amounted to 3.55 µM. Turning to `O=C(c1ccc(O)c([N+](=O)[O-])c1)c1ccc(O)c([N+](=O)[O-])c1`, the EC50 was above 200 µM and the IC50 came to 45.7 µM. With `O=C1CNCCCN2CCN(CCCNCC(=O)Nc3ccc(cc3)S(=O)(=O)c3ccc(cc3)NC(=O)CNCCCN3CCN(CCCNCC(=O)Nc4ccc(cc4)S(=O)(=O)c4ccc(cc4)N1)CC3)CC2`, the EC50 is above 50.1 µM and the concentration for half-maximal inhibition (IC50) was above 50.1 µM. As for `Cc1c2c(cc3c1C(=O)C(=O)C1=C3OCC1C)C(C)(C)CCC2` (stereo not drawn), the outcome was inactive. `C/C(=N\NS(=O)(=O)c1ccc(C)cc1)c1ccc[n+]([O-])n1`: the result was inactive. Still for that read-out and setting: under `CCS[C@]1(C)C(=O)c2ccccc2C(=O)[C@@]1(C)O` stands “inactive”.

Regarding `COc1cc(NCC(C#N)C#N)ccc1N=Nc1ccc(Cl)cc1`, the EC50 was above 21.4 µM and the IC50 is above 21.4 µM.

In the case of `Cc1ccccc1S(=O)(=O)N1CCN(S(=O)(=O)c2ccccc2C)CC1`, the EC50 is above 200 µM and the IC50 was above 200 µM. Turning to `CCOC(=O)C1(C/C=C(/C)Cl)CCCC1=O` (stereo not drawn), the EC50 was above 204 µM and the IC50 is above 204 µM. On to `COc1cc2c3c(c1)SCC(=O)N3CCN2`, for which the EC50 is above 200 µM and the IC50 is above 100 µM. Consider `COc1ccc(C(=O)N2CCN(c3ccc4[nH]c(=O)oc4c3)CC2)cc1`, for which the EC50 is above 200 µM and the 50% inhibitory concentration (IC50) is above 200 µM.

Turning to `CCCCCCCCCCCCCC1CCC(CC)N1` (stereo not drawn), the EC50 is above 331 µM and the IC50 was above 331 µM. On to `C#CC(O)/C=C/C(O)CCCC(O)CC#CC(O)C#CCCCCC(O)/C=C/CCCC(O)/C=C/CCCCCCCCCCCCCC(O)C(O)C#CC(=O)O` (stereo not drawn), for which the EC50 was above 50.1 µM and the half-maximal inhibitory concentration (IC50) stood at 28.8 µM. As to `N#Cc1ccc(C(C2C(=O)NC(=O)NC2=O)C2C(=O)NC(=O)NC2=O)cc1`, the EC50 is above 70.8 µM and the concentration for half-maximal inhibition (IC50) is above 70.8 µM. Take `COc1cc2c(c(OC)c1OC)CCc1cnoc1-2`: the EC50 is above 257 µM and the IC50 was above 100 µM. For `Cc1cc(Cl)ccc1N1C(=O)C(=O)C(c2nc3ccccc3s2)C(=O)C1=O`, in that order: above 91.2 µM and above 91.2 µM.

Take `CN1C(=O)N(C)C(O)C(Cl)(Br)C1=O` (stereo not drawn): the EC50 is above 200 µM and the IC50 is above 200 µM. Take `CC1(C)C/C(=N/O)c2c(nc3ccc4ccccc4c3c2-c2ccc(Cl)cc2)C1`: the EC50 is above 100 µM and the IC50 is 37.2 µM.

As to `NCCc1nc2ccccc2[nH]1`, the EC50 was above 200 µM and the IC50 is above 200 µM. As to `CC[C@H](C)N(CCN)C(=O)c1cc2ccccc2c(-c2ccccc2Cl)n1`, the outcome was inactive.

`Cc1ccccc1SSc1ccccc1C`: the outcome was inactive. Take `CCOC(=O)c1c(NC(=O)c2ccc(Br)cc2)sc2c1CCCC2`: the EC50 is above 200 µM and the IC50 was above 200 µM.

`COC(=O)c1cc(=O)c2c(ccc3oc(=O)ccc32)[nH]1`: the EC50 was above 200 µM and the concentration for half-maximal inhibition (IC50) was determined as 170 µM. Turning to `CCC1OC(=O)CC(O)C(C)C(OC2OC(C)CC(N(C)C)C2O)C(CC=O)CC(C)C(=O)/C=C/C2(C)OC2C1C` (stereo not drawn), the EC50 is above 200 µM and the half-maximal inhibitory concentration (IC50) is 33.9 µM. For `CC1C(=O)N2C(=O)C(C)C(C)C(=O)N2C(=O)C1C` (stereo not drawn), in that order: above 53.7 µM and above 53.7 µM.

Consider `CCS(CC)(CC)CC1CCCC2=CCC(P(=O)(c3ccccc3)c3ccccc3)CC21` (stereo not drawn), for which the EC50 was above 15.5 µM and the half-inhibitory concentration (IC50) was above 15.5 µM. On to `C=CCN(c1cc(OC)c2[nH]c(C(=O)O)c(C)c2c1[N+](=O)[O-])S(C)(=O)=O`, for which the EC50 was above 200 µM and the half-inhibitory concentration (IC50) is above 200 µM. For the compound `COc1cc(C(=O)CC(O)(C(F)(F)F)C(F)(F)F)cc(OC)c1OC`, the EC50 was above 200 µM and the concentration for half-maximal inhibition (IC50) is above 200 µM. `CSc1ccc(NC(=O)Nc2cc(C)cc(C)n2)cc1`: the EC50 is above 200 µM and the IC50 was above 200 µM. Take `C=C1CC(C)(Cn2c(N)nc3nc[nH]c3c2=O)OC1=O` (stereo not drawn): the EC50 was above 200 µM and the IC50 came out at 117 µM.

As for `CN(C)c1ccc(/C=C(/C#N)c2ccc(Cl)cc2)cc1`, the EC50 was above 100 µM and the IC50 stood at 1.23 µM. As for `O=C(OCCN1CCCC12CCCCC2)C(c1ccccc1)C1CCCC1` (stereo not drawn), the EC50 is above 200 µM and the IC50 was 7.76 µM. For `COc1c(C)c(C/C=C(\C)CCCCO)c(OC)c(OC)c1OC`, in that order: above 200 µM and 26.3 µM. Turning to `N#CSCc1ccc(Cl)cc1`, the EC50 was above 28.2 µM and the half-inhibitory concentration (IC50) was determined as 16.2 µM. Consider `CN(C)[C@@H]1C(=O)C(C(=O)NCNc2nc3n[nH]nc3c(=O)[nH]2)=C(O)[C@@]2(O)C(=O)C3=C(O)c4c(O)cccc4[C@@](C)(O)[C@H]3C[C@@H]12`, for which the EC50 is above 0.891 µM and the IC50 came to 0.562 µM.

For `COC1/C=C/C=C/C=C/CC(OC(=O)C(C)NC(=O)C2CCCCC2)C(C)C(O)/C(C)=C\CCc2c(O)c(cc3c2SCC(=O)N3)NC(=O)C1` (stereo not drawn), the EC50 is above 2 µM and the concentration for half-maximal inhibition (IC50) came to 0.229 µM. As for `O=[N+]([O-])c1cc([N+](=O)[O-])c2no[n+]([O-])c2c1Nc1ccccc1`, the EC50 was above 56.2 µM and the IC50 is above 56.2 µM. With `COC(=O)CC1(C)CCC2(OC(CC(C)=O)C3C(C)(C)CCC[C@@]32C)O1` (stereo partly drawn), the EC50 is above 200 µM and the concentration for half-maximal inhibition (IC50) stood at 141 µM. On to `N/N=C(\N)SCc1ccc(N=C=S)cc1`, for which the outcome was inactive.

Take `COc1ccc(-c2cc(NC(=O)c3cnccn3)c(=O)oc2C)cc1`: the EC50 is above 200 µM and the IC50 was 170 µM. In the case of `COC1=C(C)C(=O)c2ncccc2C1=O`, the result was inactive. The same measure, in the same setting: under `Cc1cc(O)c2c(c1)C(=O)c1cc(O)cc(O)c1C2=O` stands “inactive”.
